# Experimental data: PMC7216467, “Evaluation of neuroprotective and anti-amnesic effects of Elaeagnus umbellata Thunb. On scopolamine-induced memory impairment in mice” (BMC Complementary Medicine and Therapies, 2020)
# What was measured:
# DPPH scavenging assay = assay: DPPH scavenging assay
# Procedure: About 24 mg, DPPH was dissolved in 100 mL methanol. Compounds solutions (1 mg/mL) were also prepared in methanol. […] About 0.1 mL of each working dilution was mixed with DPPH (3.0 mL) and incubated at 25 °C for 30 min. […] Ascorbic acid was used as a standard.
# ABTS scavenging assay = assay: ABTS scavenging assay
# Procedure: About 300 μL compounds working dilutions and 3.0 mL ABTS solutions were mixed and incubated for 6 min. Finally the absorbance was measured via UV spectrophotometer. Ascorbic acid was used as positive control. % ABTS scavenging potential was measured using eq. 4.
# [1] = molecular target: T1, Acetyl cholinesterase (Electron-eel Type, VI-S) (Electrophorus electricus, UniProt O42275); assay: biochemical; type: biochemical; conditions: for IC50: linear regression, read-out: AChE IC50 (converted)
# T1 construct: purchased Sigma-Aldrich, Germany
# Procedure: Ellman assay was used to evaluate E. umbellata fruit extracts and isolated compounds for their anticholinesterase potentials. About 205 μL extract/compound solutions and 5 μL of AChE (0.03 U/mL)/BChE (0.01 U/mL) along with catalyst DTNB (5 μL) were taken in a cuvette and kept at 30 °C in hot water bath for 15 min. […] As a negative control solution all the above mentioned components except extracts and isolated compounds were mixed in the mentioned order.
# V is inhibitor dependent rate of reaction while, Vmax is inhibitor independent rate of reaction.
# [2] = test system: scopolamine-induced cognitive impairment in mice; assay: Y-maze test, scopolamine-induced amnesia; type: in vivo
# Procedure: (§1) After the acclimatization period, in scopolamine-induced amnesia test the Albino male mice were randomly divided into six groups (n = 6) to study the effect of CHF. […] The doses of tested solutions of CHF. […] The treatments were continued for 8 days. In the Y-maze and Novel object recognition tests, scopolamine (1 mg/kg, i.p.) was given to the different groups only on the 8th day, 30 min after the respective treatments, to induce cognitive deficit in mice. One hour after administration of the drugs all animals were subjected to Y-maze and Novel object recognition test following standard procedure.
# The Y-Maze test was designed to evaluate the short term memory in experimental mice using reported procedure. Y-maze apparatus is Y shaped with three arms of equivalent size, labelled as A, B, and C. Each arm was 20 cm long, 6 cm wide and 15.5 cm high and was oriented at an angle of 120° from the other two. For each animal the Y maze testing was carried out for 5 min. Mice were placed in one arm, and the order and number of arm entries were recorded. An arm entry was considered to be complete when the hind paws of the mice was completely inside a given arm while alternation was defined as consecutive entries by a mouse into the three different arms. The arena was cleaned using 70% v/v ethanol between each trial to avoid olfactory cues. The escape latency (second) on day 1–5 were recorded for all animals. At the end of 5th day, the spontaneous alteration behavior study was conducted. In spontaneous alteration study, each animal was placed at the center of the Y-Maze apparatus and allowed to move freely through the maze. The series of arm entries were visually recorded. To start behavioral test the mice was set in one arm and recorded the number of arm entries, same arm returns (SAR), and alternate arm returns (AAR) were measured. Percent spontaneous alternation performance (SAP) was calculated by the following formula: 5 %SAP=Active alterationstotal alterations/Possible alterationstotalarmentries−2x100
# [3] = test system: scopolamine-induced cognitive impairment in mice; assay: Novel object recognition test, scopolamine-induced amnesia; type: in vivo; conditions: donepezil 2 mg/kg
# Procedure: as §1
# The detail methodology published, was followed while performing the novel object recognition (NORT) test. NORT consisting of habituation, sample, and test phases. On the day before test, mice were allowed to explore the box (without any object) for 2 min. On the day of test after habituation the sample phase was carried out 60 min after the last treatment on the 8th day. In sample phase each mouse was placed in an open field with two identical objects (plastic ball) for 5 min. The mouse was then returned to its home cage. The apparatus was comprised of a white coloured plywood box (40 cm × 40 cm × 66 cm) with a network floors that could be effortlessly cleaned (with 70%v/v ethanol) after every trial. The apparatus was illuminated by a 60 W light suspended 50 cm over the crate. The arena and objects were cleaned with 70% v/v ethanol between trials to avoid olfactory cues. For short-term memory, the test phase was performed 5 min after the sample phase. In the test phase, each mouse was placed again in the open field in which one of the identical objects had been replaced with a novel object (plastic square). The location of the object was counterbalanced so that one half of the mice in each group saw the novel object on the left side of the box arena, and the other half saw the novel object on the right side of the box arena to eliminate bias of sides. NORT can also be used for encoding and retrieval of spatial memory (long-term memory). A wash-out period of 5 days was allowed before the NORT to assess long-term memory in mice. The procedure was the same as that for short-term memory except that mice were presented in the test phase 24 h after the sample phase exposure. The time spent exploring each object in each phase was recorded manually using a stopwatch. A mouse was scored as exploring when its head was oriented towards the object within a distance of 2 cm or when the nose was in contact with the object. Parameters including the time (in seconds) spent exploring familiar (F) object, time (in seconds) spent exploring the novel (N) object, and total time (in seconds) spent exploring both objects (N + F) were measured separately.
# [4] = vs scopolamine (1 mg/kg) group, CHF. Ext 200 mg/kg, CGA 10 and 30 mg/kg, donepezil 2 mg/kg
# T1 sequence (O42275 24-633): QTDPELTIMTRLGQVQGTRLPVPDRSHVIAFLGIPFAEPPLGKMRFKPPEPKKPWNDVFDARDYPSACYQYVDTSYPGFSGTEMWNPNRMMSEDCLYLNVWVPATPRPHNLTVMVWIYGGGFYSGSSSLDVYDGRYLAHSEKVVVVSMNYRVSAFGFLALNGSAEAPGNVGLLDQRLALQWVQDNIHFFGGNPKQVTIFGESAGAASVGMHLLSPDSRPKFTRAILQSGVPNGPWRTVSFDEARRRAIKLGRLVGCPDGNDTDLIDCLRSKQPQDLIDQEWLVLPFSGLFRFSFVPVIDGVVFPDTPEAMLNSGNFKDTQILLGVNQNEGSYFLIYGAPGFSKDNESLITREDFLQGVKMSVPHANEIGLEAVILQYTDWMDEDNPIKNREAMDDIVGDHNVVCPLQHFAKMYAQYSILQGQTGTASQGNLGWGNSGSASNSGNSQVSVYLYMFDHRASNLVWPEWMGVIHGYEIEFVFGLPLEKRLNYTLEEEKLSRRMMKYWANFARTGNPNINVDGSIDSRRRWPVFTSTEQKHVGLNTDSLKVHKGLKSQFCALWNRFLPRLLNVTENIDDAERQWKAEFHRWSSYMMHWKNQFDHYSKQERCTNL
compound,measurement,setting,value
"O=C1O[C@H]([C@@H](O)CO)C(O)=C1O [Ascorbic acid, reference compound]",DPPH IC50,DPPH scavenging assay,29 mg/L
same,% DPPH Scavenging Mean ± SEM,DPPH scavenging assay; 31.05 µg/mL,69±0.4%
same,% DPPH Scavenging Mean ± SEM,DPPH scavenging assay; 62.5 µg/mL,73±0.5%
same,% DPPH Scavenging Mean ± SEM,DPPH scavenging assay; 125 µg/mL,77±0.4%
same,% DPPH Scavenging Mean ± SEM,DPPH scavenging assay; 250 µg/mL,80±0.4%
same,% DPPH Scavenging Mean ± SEM,DPPH scavenging assay; 500 µg/mL,86±1.0%
same,% DPPH Scavenging Mean ± SEM,DPPH scavenging assay; 1000 µg/mL,91±0.5%
same,ABTS IC50,ABTS scavenging assay,32 mg/L
same,% ABTS Scavenging Mean ± SEM,ABTS scavenging assay; 31.05 µg/mL,56±1.1%
same,% ABTS Scavenging Mean ± SEM,ABTS scavenging assay; 62.5 µg/mL,64±1.0%
same,% ABTS Scavenging Mean ± SEM,ABTS scavenging assay; 125 µg/mL,70±0.5%
same,% ABTS Scavenging Mean ± SEM,ABTS scavenging assay; 250 µg/mL,78±0.5%
same,% ABTS Scavenging Mean ± SEM,ABTS scavenging assay; 500 µg/mL,84±1.1%
same,% ABTS Scavenging Mean ± SEM,ABTS scavenging assay; 1000 µg/mL,90±0.5%
"O=c1oc2c(O)c(O)cc3c(=O)oc4c(O)c(O)cc1c4c23 [Compound-II, Ellagic acid]",% AChE Mean ± SEM,[1]; 31.05 µg/mL,41±0.3 %
same,% AChE Mean ± SEM,[1]; 62.5 µg/mL,48±0.5 %
same,% AChE Mean ± SEM,[1]; 125 µg/mL,52±0.4 %
same,% AChE Mean ± SEM,[1]; 250 µg/mL,68±0.1 %
same,% AChE Mean ± SEM,[1]; 500 µg/mL,75±0.4 %
same,% AChE Mean ± SEM,[1]; 1000 µg/mL,81±0.5 %
same,IC50,[1],195 µM
same,DPPH IC50,DPPH scavenging assay,39 mg/L
same,% DPPH Scavenging Mean ± SEM,DPPH scavenging assay; 31.05 µg/mL,44±1.4 %
same,% DPPH Scavenging Mean ± SEM,DPPH scavenging assay; 62.5 µg/mL,57±0.5 %
same,% DPPH Scavenging Mean ± SEM,DPPH scavenging assay; 125 µg/mL,59±0.4 %
same,% DPPH Scavenging Mean ± SEM,DPPH scavenging assay; 250 µg/mL,60±1.2 %
same,% DPPH Scavenging Mean ± SEM,DPPH scavenging assay; 500 µg/mL,70±0.5 %
same,% DPPH Scavenging Mean ± SEM,DPPH scavenging assay; 1000 µg/mL,77±1.1 %
same,ABTS IC50,ABTS scavenging assay,44 mg/L
same,% ABTS Scavenging Mean ± SEM,ABTS scavenging assay; 31.05 µg/mL,41±0.5 %
same,% ABTS Scavenging Mean ± SEM,ABTS scavenging assay; 62.5 µg/mL,49±1.0 %
same,% ABTS Scavenging Mean ± SEM,ABTS scavenging assay; 125 µg/mL,57±1.0 %
same,% ABTS Scavenging Mean ± SEM,ABTS scavenging assay; 250 µg/mL,64±0.3 %
same,% ABTS Scavenging Mean ± SEM,ABTS scavenging assay; 500 µg/mL,65±0.4 %
same,% ABTS Scavenging Mean ± SEM,ABTS scavenging assay; 1000 µg/mL,69±1.0 %
"O=C(O)c1cc(O)c(O)c(O)c1 [Compound-III, Gallic acid]",% AChE Mean ± SEM,[1]; 31.05 µg/mL,39±0.5 %
same,% AChE Mean ± SEM,[1]; 62.5 µg/mL,43±1.1 %
same,% AChE Mean ± SEM,[1]; 125 µg/mL,49±1.4 %
same,% AChE Mean ± SEM,[1]; 250 µg/mL,55±0.3 %
same,% AChE Mean ± SEM,[1]; 500 µg/mL,62±1.2 %
same,% AChE Mean ± SEM,[1]; 1000 µg/mL,76±2.1 %
same,IC50,[1],265 µM
same,DPPH IC50,DPPH scavenging assay,52 mg/L
same,% DPPH Scavenging Mean ± SEM,DPPH scavenging assay; 31.05 µg/mL,43±1.4 %
same,% DPPH Scavenging Mean ± SEM,DPPH scavenging assay; 62.5 µg/mL,48±0.5 %
same,% DPPH Scavenging Mean ± SEM,DPPH scavenging assay; 125 µg/mL,50±1.2 %
same,% DPPH Scavenging Mean ± SEM,DPPH scavenging assay; 250 µg/mL,59±1.5 %
same,% DPPH Scavenging Mean ± SEM,DPPH scavenging assay; 500 µg/mL,70±1.1 %
same,% DPPH Scavenging Mean ± SEM,DPPH scavenging assay; 1000 µg/mL,76±0.5 %
same,ABTS IC50,ABTS scavenging assay,54 mg/L
same,% ABTS Scavenging Mean ± SEM,ABTS scavenging assay; 31.05 µg/mL,43±1.3 %
same,% ABTS Scavenging Mean ± SEM,ABTS scavenging assay; 62.5 µg/mL,48±0.4 %
same,% ABTS Scavenging Mean ± SEM,ABTS scavenging assay; 125 µg/mL,50±1.5 %
same,% ABTS Scavenging Mean ± SEM,ABTS scavenging assay; 250 µg/mL,54±1.1 %
same,% ABTS Scavenging Mean ± SEM,ABTS scavenging assay; 500 µg/mL,60±0.5 %
same,% ABTS Scavenging Mean ± SEM,ABTS scavenging assay; 1000 µg/mL,65±2.1 %
"Oc1cc(O)cc(O)c1 [Compound-IV, Phloroglucinol]",% AChE Mean ± SEM,[1]; 31.05 µg/mL,21±1.5 %
same,% AChE Mean ± SEM,[1]; 62.5 µg/mL,29±2.1 %
same,% AChE Mean ± SEM,[1]; 125 µg/mL,34±1.5 %
same,% AChE Mean ± SEM,[1]; 250 µg/mL,40±0.5 %
same,% AChE Mean ± SEM,[1]; 500 µg/mL,52±1.6 %
same,% AChE Mean ± SEM,[1]; 1000 µg/mL,66±1.2 %
same,IC50,[1],730 µM
same,DPPH IC50,DPPH scavenging assay,105 mg/L
same,% DPPH Scavenging Mean ± SEM,DPPH scavenging assay; 31.05 µg/mL,32±0.5 %
same,% DPPH Scavenging Mean ± SEM,DPPH scavenging assay; 62.5 µg/mL,36±1.1 %
same,% DPPH Scavenging Mean ± SEM,DPPH scavenging assay; 125 µg/mL,40±0.5 %
same,% DPPH Scavenging Mean ± SEM,DPPH scavenging assay; 250 µg/mL,51±1.0 %
same,% DPPH Scavenging Mean ± SEM,DPPH scavenging assay; 500 µg/mL,57±1.0 %
same,% DPPH Scavenging Mean ± SEM,DPPH scavenging assay; 1000 µg/mL,67±0.4 %
same,ABTS IC50,ABTS scavenging assay,112 mg/L
same,% ABTS Scavenging Mean ± SEM,ABTS scavenging assay; 31.05 µg/mL,25±1.0 %
same,% ABTS Scavenging Mean ± SEM,ABTS scavenging assay; 62.5 µg/mL,33±0.5 %
same,% ABTS Scavenging Mean ± SEM,ABTS scavenging assay; 125 µg/mL,39±1.2 %
same,% ABTS Scavenging Mean ± SEM,ABTS scavenging assay; 250 µg/mL,45±1.0 %
same,% ABTS Scavenging Mean ± SEM,ABTS scavenging assay; 500 µg/mL,51±0.5 %
same,% ABTS Scavenging Mean ± SEM,ABTS scavenging assay; 1000 µg/mL,54±1.1 %
"COc1cc2c(cc1OC)C(=O)C(CC1CCN(Cc3ccccc3)CC1)C2 (centres unmarked) [Donepezil, reference compound]",escape latency,"[2]; day 1-5, vs scopolamine treated group",significant decline (p < 0.001)
same,percentage of alternate arm returns,[2]; [4],significant (*p<0.05; **p < 0.01) increase
same,percentage of same arm returns,[2]; [4],significant (p < 0.01) reduction
same,"time for exploration of novel object, test phase, long term memory","[3]; CHF. Ext 100 & 200 mg/kg, CGA 10 & 30 mg/kg","significant (*p < 0.05, **p < 0.01) increase"
same,"%DI, long term memory","[3]; CHF. Ext 100, 200 mg/kg, CGA 10 & 30 mg/kg","significant (*p < 0.05, **p < 0.01) increase"
same,"time with novel object, test phase, short term memory","[3]; vs scopolamine group (*p < 0.05, **p < 0.01), CHF. Ext 50, 100, 200 mg/kg, CGA 10 and 30 mg/kg",more time with novel object
